Values belong to the compound of their own block, whether it stands above or below them.
Tests used:
[1] = tested on: PGE2 formation in human whole blood; assay: PGE2 formation in LPS-stimulated human whole blood (in vitro incubation); type: cell-based; settings: LPS 10 µg/ml, 18 hours; for inhibition of PGE2 formation: alone or in combination; for inhibition of PGE2 compared with 6-keto PGF1α formation (FIG. 1): varied concentrations, compound alone
Method: Determination of PGE2 and 6-keto PGF1α Formation in Human Whole Blood: Peripheral blood from healthy adult volunteers, who had not received any medication for at least 2 weeks under informed consent, was obtained by venipuncture and collected in a vacutainer blood collection tube containing heparin. Aliquots of whole blood (0.8 ml) were mixed with aspirin (50 μM) and volume was adjusted to 1 ml with PBS containing 6 mM glucose. The blood was incubated with the indicated compounds for 5 mins. at room temperature; and then stimulated with lipopolysaccharide (10 μg/ml) for 18 h at 37° C. Prostanoid formation was stopped on ice and the samples were centrifuged (2300 g, 10 min, 4° C.), and 6-keto PGF1α was quantified in the supernatant using High Sensitivity ELISA Kit for 6-keto PGF1α according to the manufacturer's protocols (Calbiochem). PGE2 was determined after solid-phase extraction, RP-HPLC and an ELISA according to the procedures of Koeberle et al. [J Pharmacol Exp Ther. 2008; 326(3):975-82].
Synergistic interaction between compounds was analyzed by the sensitization method (Harvey, R. J., J. Theor. Biol. 74: 411-437, 1978). Briefly, sensitization is measured as the ratio between observed and expected inhibition of PGE2. The expected level of activity (Ae) is calculated by Aβ=1−((1−A1)*(1−A2)) (^3) where A1 and A2 are the activities of drugs 1 and 2 alone at the concentration used in the combination (Harvey, R. J., J. Theor. Biol. 74: 411-437, 1978).

[2] = tested on: TNF-α; assay: TNF-α in LPS-stimulated human whole blood (in vitro incubation); type: cell-based; settings: whole human blood stimulated with LPS (FIG. 4)
Method: (§1) Determination of Inflammatory Cytokines (IL-1β & TNF-α) in Human Whole Blood: Blood from healthy adult volunteers was obtained in vacutainer blood collection tubes containing heparin as described above. Aliquots of whole blood (0.2 ml) were diluted with serum-free medium (RPMI-SF) in 24-well culture plates and volume was adjusted to 1 ml. The blood was incubated with the indicated compounds for 5 minutes at room temperature, and then stimulated with lipopolysaccharide (10 μg/ml) for 6 h at 37° C. with 5% CO2. Reaction was stopped on ice, the samples were centrifuged (2300 g, 10 mins., 4° C.), and of Inflammatory Cytokines IL-1β& TNF-α were estimated in the supernatant using High Sensitivity ELISA Kits according to the manufacturer's protocols (R&D Biosystems).

[3] = tested on: IL-1β; assay: IL-1β in LPS-stimulated human whole blood (in vitro incubation); type: cell-based; settings: whole human blood stimulated with LPS (FIG. 5); read-out: suppression of IL-1 beta, IC50
Method: as §1

[4] = tested on: 6-keto PGF1α; assay: Healthy volunteer crossover study: 6-keto PGF1α production in LPS-stimulated blood after oral dosing; type: in vivo, human; settings: single oral dose, blood 105 min after dosing, LPS stimulation, SE in parentheses
Method: (§2) Peripheral blood from healthy adult volunteers, who had not received any medication for at least 2 weeks under informed consent, was obtained by venipuncture and collected in a vacutainer blood collection tube containing heparin. Aliquots of whole blood (0.8 ml) were mixed with aspirin (50 μM) and volume was adjusted to 1 ml with PBS containing 6 mM glucose. The blood was incubated with the indicated compounds for 5 mins. at room temperature; and then stimulated with lipopolysaccharide (10 μg/ml) for 18 h at 37° C. […] PGE2 was determined after solid-phase extraction, RP-HPLC and an ELISA according to the procedures of Koeberle et al. [J Pharmacol Exp Ther. 2008; 326(3):975-82]. […] A Blood sample (6 ml), immediately prior to dosing and at 105 minutes after dosing was obtained as described above. […] A blood sample (6 ml), immediately prior to dosing and at 105 min after dosing was obtained as described above.

[5] = tested on: gastric ulcers; settings: ibuprofen 2400 mg/day, daily use for 24 weeks, arthritis patients; cited from earlier work
[6] = Healthy volunteer study: total plasma concentration of ibuprofen by HPLC; type: in vivo, human; settings: SE in parentheses; for concentration at 105 min: plasma
Method: Human Healthy Volunteer Clinical Study: Volunteers with acute or chronic diseases, medical history of gastrointestinal ulcers or allergy to NSAIDs were not included. Volunteers were not permitted to receive any NSAIDs for 2 weeks before and throughout the duration of the study. The study was conducted in an open-label, crossover design with a seven-day washout period between each treatment. Volunteer 1 was given a single oral dose of 400 mg of ibuprofen (Baby Advil Suspension) with 240 mL of water. […] A Blood sample (6 ml), obtained via an indwelling catheter inserted into an arm vein, and was collected into a tube containing heparin immediately prior to an ibuprofen dosing and at the following times thereafter: 65, 105, and 115 mins. after dosing. An aliquot of blood was used for determination of PGE2 and TNF-α after LPS stimulation as described above. Plasma was separated by centrifugation at 1000 g for 10 minutes at room temperature from the remaining blood for ibuprofen assay. After seven days (washout period), the same volunteer was given a single oral dose of 100 mg ibuprofen (Baby Advil Suspension) with 240 mL of water. A 6.0 mL blood sample for the determination of PGE2 and TNF-α after LPS stimulation and for the estimation of plasma levels of ibuprofen were drawn into tubes through an indwelling cannula before dosing and at 75, 125, and 155 mins. after dosing.
Total plasma concentrations of ibuprofen were determined by high-performance liquid chromatography (HPLC.) system that consisted of a Model 510 pump, a Model 486 variable wavelength UV detector and a computer loaded with the Millenium software, all from Waters Associates (Milford, Mas). To 100 μl of plasma was added 100 μl of internal standard solution (naproxen 10 μg/ml in 65% methanol and 1% acetic acid) followed by […]. Following vortex-mixing (30 s) and centrifugation (1000 g, 5 mins.), the supernatant was evaporated to dryness, and reconstituted in 100 μl of 65% methanol and 1% acetic acid immediately prior to injection onto a reversed phase column (ρBondaPak C18) eluted with methanol:1% acetic acid (65:35), pumped at 1.0 ml min. The column eluent was monitored at 210 nm. The height of the ibuprofen peak was divided by the height of the internal standard peak and this ratio was used to determine ibuprofen concentrations from a standard curve of ibuprofen.
A Blood sample (6 ml), immediately prior to dosing and at 105 minutes after dosing was obtained as described above. Production of PGE2, 6-keto PGF1α and TNF-α after LPS stimulation and plasma concentrations were determined as described above.
A blood sample (6 ml), immediately prior to dosing and at 105 min after dosing was obtained as described above. Production of PGE2, 6-keto PGF1α and TNF-α after LPS stimulation and plasma concentrations were determined as described above.

[7] = tested on: TNF-α; assay: Healthy volunteer study: TNF-α in LPS-stimulated blood after ibuprofen dosing; type: in vivo, human; settings: volunteer 1; single oral dose 400 mg ibuprofen; blood 65 minutes after dosing, LPS stimulation (FIG. 3)
Method: as §1
Human Healthy Volunteer Clinical Study: Volunteers with acute or chronic diseases, medical history of gastrointestinal ulcers or allergy to NSAIDs were not included. Volunteers were not permitted to receive any NSAIDs for 2 weeks before and throughout the duration of the study. The study was conducted in an open-label, crossover design with a seven-day washout period between each treatment. Volunteer 1 was given a single oral dose of 400 mg of ibuprofen (Baby Advil Suspension) with 240 mL of water. Administration of the study medication was supervised by the investigator to ensure that the drug had been swallowed. […]

[8] = tested on: PGE2; assay: Healthy volunteer crossover study: PGE2 production in LPS-stimulated blood after oral dosing; type: in vivo, human; settings: LPS stimulation
Method: as §2, with “326(3):975-82]. Human Healthy Volunteer Clinical Study: Volunteers with acute or chronic diseases, medical history of gastrointestinal ulcers or allergy to NSAIDs were not included. Volunteers were not permitted to receive any NSAIDs for 2 weeks before and throughout the duration of the study. The study was conducted in an open-label, crossover design with a seven-day washout period between each treatment. […] Administration of the study medication was supervised by the investigator to ensure that the drug had been swallowed. […] An aliquot of blood was used for determination of PGE2 and TNF-α after LPS stimulation as described above.” for “326(3):975-82].”

[9] = curcumin 10 µM, ibuprofen 20 µM
[10] = Human Volunteer 1, single oral dose, ibuprofen 50 mg (curcumin 200 mg, phosphatidylcholine 400 mg where included), 105 min after dosing
[11] = Human Volunteer 2, single oral dose, ibuprofen 40 mg (curcumin 200 mg, phosphatidylcholine 400 mg where included), 105 min after dosing

IC50 [3]: 14 µM
Compound: COc1cc(/C=C/C(=O)CC(=O)/C=C/c2ccc(O)c(OC)c2)ccc1O [Curcumin]
inhibition of PGE2 formation ([1]; curcumin 3 µM, ibuprofen 4 µM): did not inhibit PGE2 formation
inhibition of PGE2 formation [1, 9]: no detectable inhibition
inhibition of PGE2 compared with 6-keto PGF1α formation (FIG. 1) [1]: inhibited PGE2 more potently than 6-keto PGF1α
suppression of ibuprofen-induced stimulation of TNF-α ([2]; curcumin 10 µM co-incubated with ibuprofen 20 µM): suppressed the deleterious stimulation of TNF-α

Plasma ibuprofen (ug/ml) ([6]; Human Volunteer 1, single oral dose ibuprofen 100 mg): 3.0 (0.5) ug/ml
Plasma ibuprofen ([6]; Human Volunteer 1, single oral dose ibuprofen 100 mg, listed as ibuprofen): 3.0 µg/mL
Plasma ibuprofen (ug/ml) ([6]; Human Volunteer 1, single oral dose ibuprofen 400 mg): 44.0 (3.0) ug/ml
Plasma ibuprofen (ug/ml) [6, 10]: 1.7 (0.15) ug/ml
Plasma ibuprofen (ug/ml) [6, 11]: 0.42 (0.06) ug/ml
concentration at 105 min [6, 10]: 1700 ng/mL
concentration at 105 min [6, 11]: 420 ng/mL
Compound: CC(C)Cc1ccc(C(C)C(=O)O)cc1 (stereo not shown) [Ibuprofen]
6-keto PGF1α (% inhibition) ([4]; Human Volunteer 1, ibuprofen 50 mg (curcumin 200 mg, phosphatidylcholine 400 mg where included)): 61 (6) % inhibition
6-keto PGF1α (% inhibition) ([4]; Human Volunteer 2, ibuprofen 40 mg (curcumin 200 mg, phosphatidylcholine 400 mg where included)): 35 % inhibition
incidence of gastric ulcers [5]: 22.9%
inhibition of PGE2 formation ([1]; curcumin 3 µM, ibuprofen 4 µM): did not inhibit PGE2 formation
inhibition of PGE2 formation [1, 9]: 38%
inhibition of PGE2 compared with 6-keto PGF1α formation (FIG. 1) [1]: inhibited the formation of both the prostanoids PGE2 and 6-keto PGF1α, to about the same extent
stimulation of TNF-α ([2]; ibuprofen 20 µM and 100 µM alone): dose-dependent stimulation of TNF-α
increase in TNF-α after ibuprofen dosing [7]: 3.5 fold
PGE2 (% inhibition) ([8]; Human Volunteer 1, single oral dose ibuprofen 100 mg, SE in parentheses): 71 % inhibition
PGE2 (% inhibition) ([8]; Human Volunteer 1, single oral dose ibuprofen 400 mg, SE in parentheses): 88 (2) % inhibition
PGE2 (% inhibition) ([8]; Human Volunteer 1, single oral dose ibuprofen 400 mg, SE in parentheses, listed as ibuprofen): about 90 % inhibition
PGE2 (% inhibition) ([8]; Human Volunteer 1, single oral dose, ibuprofen 50 mg (curcumin 200 mg, phosphatidylcholine 400 mg where included), blood 105 min after dosing, SE of 3 measurements in parentheses): 56 (3) % inhibition
PGE2 (% inhibition) ([8]; Human Volunteer 2, single oral dose, ibuprofen 40 mg (curcumin 200 mg, phosphatidylcholine 400 mg where included), blood 105 min after dosing, SE in parentheses): 29 % inhibition

— patent US20150297534A1, “METHODS AND COMPOSITIONS FOR THE MEDIATION OF NSAID-INDUCED REACTIONS” (NuBioPharma, LLC, priority 2014, published 2015)
